Source: publication PMC12514577, “Activity-based probes and chemical proteomics uncover the biological impact of targeting HMG-CoA Synthase 1 in the mevalonate pathway” (The Journal of Biological Chemistry, 2025)

Tests used:
[1] = target: T1, 3-hydroxy-3-methylglutaryl-coenzyme A synthase 1 (HMGCS1) (Homo sapiens, UniProt Q01581); experiment: competitive affinity purification TMT mass spectrometry and immunoblot in HEK293T cells; assay type: cell-based; design: endogenous HMGCS1 in HEK293T cells
T1 sequence (Q01581 1-520): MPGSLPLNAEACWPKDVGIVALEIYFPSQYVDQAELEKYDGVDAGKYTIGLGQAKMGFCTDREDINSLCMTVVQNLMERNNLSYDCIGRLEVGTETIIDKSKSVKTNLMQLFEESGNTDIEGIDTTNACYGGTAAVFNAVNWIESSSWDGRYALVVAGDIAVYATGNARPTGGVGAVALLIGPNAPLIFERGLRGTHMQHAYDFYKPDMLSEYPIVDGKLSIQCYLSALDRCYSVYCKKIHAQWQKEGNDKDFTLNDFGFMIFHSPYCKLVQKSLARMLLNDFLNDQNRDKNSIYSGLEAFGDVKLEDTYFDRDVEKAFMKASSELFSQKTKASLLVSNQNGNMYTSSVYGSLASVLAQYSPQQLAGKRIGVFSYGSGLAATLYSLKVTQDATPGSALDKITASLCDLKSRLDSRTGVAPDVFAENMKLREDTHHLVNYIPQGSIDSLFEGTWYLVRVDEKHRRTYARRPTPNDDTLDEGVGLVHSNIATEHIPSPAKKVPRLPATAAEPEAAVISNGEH

[2] = target: T1, 3-hydroxy-3-methylglutaryl-coenzyme A synthase 1 (HMGCS1); experiment: Glu-C MS/MS of adduct on recombinant HMGCS1; dose-dependent competition with HG-FL in gel; competitive chemoproteomics in HEK293T; assay type: binding; design: recombinant HMGCS1 (pET60b-HMGCS1-TEV-6His)

SMILES	competitive affinity purification TMT mass spectrometry and immunoblot in HEK293 [1]	Glu-C MS/MS of adduct on recombinant HMGCS1; dose-dependent competition with HG- [2]
CC(=C\C(=O)NCCOCCOCCNC(=O)CCCC[C@@H]1SC[C@@H]2NC(=O)N[C@@H]21)/C=C(\C)C[C@H](C)CCCC[C@H]1OC(=O)[C@@H]1CO [HG-biotin, Hymeglusin-biotin]	An orthogonal immunoblotting assay confirmed the strong enrichment of HMGCS1 by HG-biotin in DMSO pre-treated cells	–
CC(=C\C(=O)O)/C=C(\C)C[C@H](C)CCCC[C@H]1OC(=O)[C@@H]1CO [HG, Hymeglusin]	–	Mass spectrometry analysis of recombinant HMGCS1, after incubation with HG, further confirmed the modification of C129 by HG
